According to PubChem BioAssay AID1745844 (Carcinogenic Potency Database (CPDB), 2022):
Where “and” joins values, the source holds several entries; their conditions need not be identical. Equal values may be shown once. Calls of active or inactive are those of the source. No rule for the calls is given here.

System: rodent lifetime carcinogenesis bioassay, tumor incidence TD50
Experiment: carcinogenic potency in animals, long-term in vivo studies, CPDB compilation (AID 1745844)
[1] = rat, strain Fischer 344, females, in feed, site: any site (literature study), lesion: several types, types named in the paper, dosed 103 weeks, study length 104 weeks
[2] = rat, strain Fischer 344, males, in feed, site: any site (literature study), lesion: several types, types named in the paper, dosed 103 weeks, study length 104 weeks
[3] = mouse, strain ddNi, males, in feed, site: liver, lesion: adenoma-like tumor, dosed 160 weeks, study length 160 weeks

Cc1ccc(/C(=C\CN2CCCC2)c2ccccn2)cc1
inactive: carcinogen call (mouse, strain B6C3F1, females, in feed, site: any site (literature study), lesion: benign tumor, dosed 104 weeks, study length 105 weeks) negative | carcinogen call (mouse, strain B6C3F1, females, in feed, site: any site (literature study), lesion: malignant tumor, dosed 104 weeks, study length 105 weeks) negative | carcinogen call (mouse, strain B6C3F1, females, in feed, site: any site (literature study), lesion: several types, types named in the paper, dosed 104 weeks, study length 105 weeks) negative | carcinogen call (mouse, strain B6C3F1, females, in feed, site: liver, lesion: hepatocellular adenoma, dosed 104 weeks, study length 105 weeks) negative | carcinogen call (mouse, strain B6C3F1, females, in feed, site: liver, lesion: hepatocellular carcinoma, dosed 104 weeks, study length 105 weeks) negative | carcinogen call (mouse, strain B6C3F1, females, in feed, site: liver, lesion: several types, types named in the paper, dosed 104 weeks, study length 105 weeks) negative | carcinogen call (mouse, strain B6C3F1, females, in feed, site: lung, lesion: several types, types named in the paper, dosed 104 weeks, study length 105 weeks) negative | carcinogen call (mouse, strain B6C3F1, males, in feed, site: any site (literature study), lesion: benign tumor, dosed 104 weeks, study length 105 weeks) negative | carcinogen call (mouse, strain B6C3F1, males, in feed, site: any site (literature study), lesion: malignant tumor, dosed 104 weeks, study length 105 weeks) negative | carcinogen call (mouse, strain B6C3F1, males, in feed, site: any site (literature study), lesion: several types, types named in the paper, dosed 104 weeks, study length 105 weeks) negative | TD50 (mouse, strain B6C3F1, males, in feed, site: liver, lesion: hepatocellular adenoma, dosed 104 weeks, study length 105 weeks) 2330 mg/kg/day | carcinogen call (mouse, strain B6C3F1, males, in feed, site: liver, lesion: hepatocellular carcinoma, dosed 104 weeks, study length 105 weeks) negative | TD50 (mouse, strain B6C3F1, males, in feed, site: liver, lesion: several types, types named in the paper, dosed 104 weeks, study length 105 weeks) 2750 mg/kg/day | carcinogen call (mouse, strain B6C3F1, males, in feed, site: lung, lesion: several types, types named in the paper, dosed 104 weeks, study length 105 weeks) negative | carcinogen call (rat, strain Fischer 344, females, in feed, site: any site (literature study), lesion: benign tumor, dosed 103 weeks, study length 104 weeks) negative | carcinogen call (rat, strain Fischer 344, females, in feed, site: any site (literature study), lesion: malignant tumor, dosed 103 weeks, study length 104 weeks) negative | carcinogen call [1] negative | carcinogen call (rat, strain Fischer 344, females, in feed, site: liver, lesion: hepatocellular adenoma, dosed 103 weeks, study length 104 weeks) negative | carcinogen call (rat, strain Fischer 344, females, in feed, site: liver, lesion: hepatocellular carcinoma, dosed 103 weeks, study length 104 weeks) negative | TD50 (rat, strain Fischer 344, males, in feed, site: any site (literature study), lesion: benign tumor, dosed 103 weeks, study length 104 weeks) 1170 mg/kg/day | carcinogen call (rat, strain Fischer 344, males, in feed, site: any site (literature study), lesion: malignant tumor, dosed 103 weeks, study length 104 weeks) negative | carcinogen call [2] negative | carcinogen call (rat, strain Fischer 344, males, in feed, site: liver, lesion: hepatocellular adenoma, dosed 103 weeks, study length 104 weeks) negative | carcinogen call (rat, strain Fischer 344, males, in feed, site: liver, lesion: hepatocellular carcinoma, dosed 103 weeks, study length 104 weeks) negative

CC[C@H]1OC(=O)[C@H](C)[C@@H](O[C@H]2C[C@@](C)(OC)[C@@H](O)[C@H](C)O2)[C@H](C)[C@@H](O[C@@H]2O[C@H](C)C[C@H](N(C)C)[C@H]2O)[C@](C)(O)C[C@@H](C)C(=O)[C@H](C)[C@@H](O)[C@]1(C)O
5850 mg/kg/day: TD50 (rat, strain Fischer 344, females, in feed, site: liver, lesion: hepatocellular adenoma + hepatocellular carcinoma + neoplastic nodule, dosed 103 weeks, study length 104 weeks)
inactive: carcinogen call (mouse, strain B6C3F1, females, in feed, site: any site (literature study), lesion: several types, types named in the paper, dosed 103 weeks, study length 104 weeks) negative | carcinogen call (mouse, strain B6C3F1, males, in feed, site: any site (literature study), lesion: several types, types named in the paper, dosed 103 weeks, study length 104 weeks) negative | carcinogen call [1] negative | TD50 [2] 2020 mg/kg/day
3950 mg/kg/day: TD50 (rat, strain Fischer 344, males, in feed, site: liver, lesion: hepatocellular adenoma + hepatocellular carcinoma + neoplastic nodule, dosed 103 weeks, study length 104 weeks)

Cc1cc(O)c2c(c1O)C(=O)C13C(=C2O)C(=O)C2C(O)C1C1C(O)C3C(=O)C3=C(O)c4c(O)cc(C)c(O)c4C(=O)C321 (stereo not drawn)
active: TD50 (mouse, strain ddNi, females, in feed, site: liver, lesion: liver-cell adenoma, dosed 160 weeks, study length 160 weeks) 122 mg/kg/day | TD50 (mouse, strain ddNi, females, in feed, site: liver, lesion: liver-cell carcinoma, dosed 160 weeks, study length 160 weeks) 248 mg/kg/day | TD50 (mouse, strain ddNi, females, in feed, site: liver, lesion: several types, types named in the paper, dosed 160 weeks, study length 160 weeks) 79.4 mg/kg/day | TD50 [3] 113 mg/kg/day | carcinogen call [3] positive | TD50 (mouse, strain ddNi, males, in feed, site: liver, lesion: hepatoma, dosed 160 weeks, study length 160 weeks) 89.5 mg/kg/day and 74.3 mg/kg/day and 113 mg/kg/day | TD50 (mouse, strain ddNi, males, in feed, site: liver, lesion: liver-cell adenoma, dosed 160 weeks, study length 160 weeks) 83.7 mg/kg/day and 25.1 mg/kg/day and 231 mg/kg/day | TD50 (mouse, strain ddNi, males, in feed, site: liver, lesion: liver-cell carcinoma, dosed 160 weeks, study length 160 weeks) 332 mg/kg/day | TD50 (mouse, strain ddNi, males, in feed, site: liver, lesion: several types, types named in the paper, dosed 160 weeks, study length 160 weeks) 14.8 mg/kg/day

FC(Cl)C(F)(F)F (stereo not drawn)
inactive: TD50 (rat, strain Charles River CD (Sprague-Dawley), females, inhaled, site: mammary gland, lesion: fibroadenoma, dosed 104 weeks, study length 104 weeks) 56300 mg/kg/day | TD50 (rat, strain Charles River CD (Sprague-Dawley), females, inhaled, site: mammary gland, lesion: several types, types named in the paper, dosed 104 weeks, study length 104 weeks) 54000 mg/kg/day

CNC[C@H](O)c1ccc(O)c(O)c1
6.86 mg/kg/day: TD50 (mouse, strain B6C3F1, females, inhaled, site: uterus, lesion: endometrial stromal polyp + endometrial stromal sarcoma, dosed 104 weeks, study length 107 weeks)
8.52 mg/kg/day: TD50 (mouse, strain B6C3F1, females, inhaled, site: uterus, lesion: endometrial stromal polyp, dosed 104 weeks, study length 107 weeks)
4.7 mg/kg/day: TD50 (rat, strain Fischer 344, males, inhaled, site: any site (literature study), lesion: several types, types named in the paper, dosed 103 weeks, study length 105 weeks)
9.74 mg/kg/day: TD50 (mouse, strain B6C3F1, females, inhaled, site: liver, lesion: hepatocellular adenoma + hepatocellular carcinoma + neoplastic nodule, dosed 104 weeks, study length 107 weeks)

CC=CCl
16.7 mg/kg/day: TD50 (mouse, strain Ha/ICR, males, by gavage, site: forestomach, lesion: one or several types, types not named, dosed 89 weeks, study length 89 weeks)
active: TD50 (mouse, strain Ha/ICR, females, by gavage, site: forestomach, lesion: one or several types, types not named, dosed 89 weeks, study length 89 weeks) 5.05 mg/kg/day

COC1=CC(=O)C[C@@H](C)[C@]12Oc1c(Cl)c(OC)cc(OC)c1C2=O
active: TD50 (mouse, strain Swiss albino, females, by gavage, site: mammary gland, lesion: infiltrating duct carcinoma, dosed 52 weeks, study length 52 weeks) 13.8 mg/kg/day | TD50 (mouse, strain Swiss, males, in feed, site: liver, lesion: hepatoma, dosed 115 weeks, study length 115 weeks) 1660 mg/kg/day
inactive: carcinogen call (hamster, strain Syrian Golden, females, in feed, site: liver, lesion: cholangiocarcinoma, dosed 97 weeks, study length 101 weeks) negative | carcinogen call (hamster, strain Syrian Golden, males, in feed, site: liver, lesion: one or several types, types not named, dosed 123 weeks, study length 127 weeks) negative | carcinogen call (mouse, strain Swiss, females, in feed, site: liver, lesion: hemangioma, dosed 115 weeks, study length 115 weeks) negative | carcinogen call (mouse, strain Swiss, females, in feed, site: lung, lesion: one or several types, types not named, dosed 115 weeks, study length 115 weeks) negative | carcinogen call (mouse, strain Swiss, males, in feed, site: liver, lesion: hemangioma, dosed 115 weeks, study length 115 weeks) negative | carcinogen call (mouse, strain Swiss, males, in feed, site: lung, lesion: one or several types, types not named, dosed 115 weeks, study length 115 weeks) negative

CCC(CC)C(=O)NC(N)=O
30.4 mg/kg/day: TD50 (rat, strain Fischer 344, males, in feed, site: kidney, lesion: tubular-cell adenoma, dosed 71 weeks, study length 71 weeks)

CCN(CC)C(=S)[S-].CCN(CC)C(=S)[S-].[Zn+2]
inactive: carcinogen call (mouse, strain B6AKF1, females, oral dosing, site: any site (literature study), lesion: several types, types named in the paper, dosed 76 weeks, study length 76 weeks) negative | carcinogen call (mouse, strain B6AKF1, females, oral dosing, site: liver, lesion: hepatoma, dosed 76 weeks, study length 76 weeks) negative | carcinogen call (mouse, strain B6AKF1, females, oral dosing, site: lung, lesion: adenoma, dosed 76 weeks, study length 76 weeks) negative | TD50 (mouse, strain B6AKF1, males, oral dosing, site: any site (literature study), lesion: several types, types named in the paper, dosed 76 weeks, study length 76 weeks) 86.7 mg/kg/day | TD50 (mouse, strain B6AKF1, males, oral dosing, site: liver, lesion: hepatoma, dosed 76 weeks, study length 76 weeks) 205 mg/kg/day | carcinogen call (mouse, strain B6AKF1, males, oral dosing, site: lung, lesion: adenoma, dosed 76 weeks, study length 76 weeks) negative | carcinogen call (mouse, strain B6C3F1, females, oral dosing, site: any site (literature study), lesion: one or several types, types not named, dosed 76 weeks, study length 76 weeks) negative | carcinogen call (mouse, strain B6C3F1, females, oral dosing, site: liver, lesion: hepatoma, dosed 76 weeks, study length 76 weeks) negative | carcinogen call (mouse, strain B6C3F1, females, oral dosing, site: lung, lesion: several types, types named in the paper, dosed 76 weeks, study length 76 weeks) negative | TD50 (mouse, strain B6C3F1, males, oral dosing, site: any site (literature study), lesion: several types, types named in the paper, dosed 76 weeks, study length 76 weeks) 28.5 mg/kg/day | carcinogen call (mouse, strain B6C3F1, males, oral dosing, site: liver, lesion: hepatoma, dosed 76 weeks, study length 76 weeks) negative | TD50 (mouse, strain B6C3F1, males, oral dosing, site: lung, lesion: adenoma, dosed 76 weeks, study length 76 weeks) 46.2 mg/kg/day

NNC(N)=O
933 mg/kg/day: TD50 (mouse, strain Swiss albino, males, in drinking water, site: liver, lesion: several types, types named in the paper, dosed 118 weeks, study length 118 weeks)
333 mg/kg/day: TD50 (mouse, strain Swiss albino, females, in drinking water, site: lung, lesion: adenoma, dosed 118 weeks, study length 118 weeks)
798 mg/kg/day: TD50 (mouse, strain Swiss albino, females, in drinking water, site: blood vessels, lesion: angiosarcoma, dosed 118 weeks, study length 118 weeks) | TD50 (mouse, strain Swiss albino, females, in drinking water, site: liver, lesion: several types, types named in the paper, dosed 118 weeks, study length 118 weeks)
inactive: TD50 (mouse, strain Swiss albino, males, in drinking water, site: liver, lesion: hepatoma, dosed 118 weeks, study length 118 weeks) 1420 mg/kg/day
745 mg/kg/day: TD50 (mouse, strain Swiss albino, males, in drinking water, site: lung, lesion: adenoma, dosed 118 weeks, study length 118 weeks)
active: TD50 (mouse, strain Swiss albino, females, in drinking water, site: blood vessels, lesion: several types, types named in the paper, dosed 118 weeks, study length 118 weeks) 395 mg/kg/day | TD50 (mouse, strain Swiss albino, females, in drinking water, site: lung, lesion: several types, types named in the paper, dosed 118 weeks, study length 118 weeks) 223 mg/kg/day | TD50 (mouse, strain Swiss albino, males, in drinking water, site: lung, lesion: several types, types named in the paper, dosed 118 weeks, study length 118 weeks) 833 mg/kg/day
975 mg/kg/day: TD50 (mouse, strain Swiss albino, females, in drinking water, site: blood vessels, lesion: angioma, dosed 118 weeks, study length 118 weeks)
